Where two headings read alike, the source gives them in different places.
Columns and labels:
[1] = test system: ddy strain of male mice; test: Acute toxicity (oral, general symptom and death observed for 7 days); format: in vivo; conditions: 7 days
Protocol: (§1) Next, several tests for determining the pharmacological properties, in that acute toxicity, anti-pyretic activity, analgesic activity and anti-inflammatory activity of the present 1,3,5-substituted biuret compounds of the formula (1) were conducted and the test results are shown in Table (2). In the tests, each compounds to be tested was used as a suspension in 0.25% carboxymethylcellulose solution. Methods for testing are explained as follows:
The ddy strain of male mice (body weight, 20-25 g) were used as test animals. The mice were fasted overnight and the compound to be tested was administered orally. […] The lethal dose (mg/kg, body weight) of the test compound was determined in connection with the death number of mice/the number of mice tested. In Table 2, the values indicated with Δ marks are 50% lethal dose, LD50 (mg/kg, body weight).

[2] = test system: pain reaction of the mouse caused by a clamp; test: Analgesic activity, Haffner method; format: in vivo, mice (ddy strain, male); conditions: mice
Protocol: as §1
According to the modified method reported by Fujimura et al., [Bulletin of the Institute for Chemical Research, Kyoto University, No. 25, pp. 36 (1951)], the ddy strain of male mice (body weight, 20-25 g) were used as test animals. The mice were fasted overnight, 100 mg/kg body weight of the test compound was administered orally, then 45 minutes after the administration, the threshhold amount (1.5-2.5 mg/kg body weight) of morphine hydrochloride was injected subcutaneously. Then 1-hour pain reaction of the mouse caused by a clamp was observed. Analgesic activity of the test compound was calculated as the inhibitory ratio (%). In Table 2, the values in parentheses show the data obtained from the test by using the dosage other than 100 mg/kg body weight. Further, the values indicated with Δ marks show 50% effective dose, ED50 (mg/kg body weight).

[3] = test system: acetic acid-induced stretching symptom of mouse; test: Analgesic activity, acetic acid-induced stretching method; format: in vivo, mice (ddy strain, male); conditions: read-out: Analgesic activity, acetic acid-induced stretching method, inhibitory ratio
Protocol: as §1
(1) Acetic acid-induced stretching method
According to the method reported by Koster et.al., [Fed. Proc., Vol. 18, pp. 412 (1959)], the ddy strain of male mice (body weight, 20-25 g) were used as test animals. The mice were fasted overnight, 100 mg/kg body weight of the test compound was administered orally, then 1 hour after the administration, 0.2 ml of 0.7% acetic acid solution was injected intraperitoneally. The acetic acid-induced stretching symptom of mouse was observed. Analgesic activity of the test compound was calculated as the inhibitory ratio (%). In Table 2, the values in parentheses show the data obtained from the test by using the dosage other than 100 mg/kg body weight. Further, the values indicated with Δ marks show 50% effective dose, ED50 (mg/kg body weight).

[4] = test system: carrageenin-induced inflammation of the hindpaw of the rat; test: Anti-inflammatory activity, acute carrageenin-induced inflammatory test; format: in vivo, rats (Wistar strain, male); conditions: Rattus norvegicus, read-out: Anti-inflammatory activity, inflammation inhibitory ratio; for inhibition in vivo at 200 mg/kg: 200 mg/kg oral
Protocol: as §1
4. Anti-inflammatory Activity
According to the method of acute carrageenin-induced inflammatory test [Folia Pharmacologia Japonica, Vol. 56, pp. 575 (1960)], the Wistar strain of male rats (body weight, 150-180 g) were used as test animals. The rats were fasted overnight, 100 mg/kg body weight of the test compound was administered orally, then 1 hour after the administration, 0.1 ml of 1% carrageenin solution, as the inflammation inducing agent, was injected subcutaneously to the hindpaw of the rat and the volume of the hindpaw was measured at time sequences. Anti-inflammatory activity of the test compound was calculated as inflammation inhibitory ratio (%) at 3 hours after the injection of inflammation inducing agent.

[5] = 100 mg/kg oral, rats, 3 hours after carrageenin
[6] = rats, 3 hours after carrageenin

CNC(=O)N(C(=O)Nc1ccccc1)c1ccccc1 [Compound No. 22, 1-methyl-3,5-diphenylbiuret]
Acute toxicity, death number of mice/number of mice tested ([1]; 2000 mg/kg oral): 0/4
Analgesic activity, Haffner method, inhibitory ratio ([2]; 200 mg/kg oral): 50%
inhibition in vivo at 100 mg/kg ([3]; po): 37.5%
inhibition in vivo at 100 mg/kg [4, 5]: 35%

CONC(=O)N(C)C(=O)Nc1ccccc1 [compound 63, 1-Methoxy-3-methyl-5-phenylbiuret]
Acute toxicity, death number of mice/number of mice tested ([1]; 1000 mg/kg oral): 0/4
Acute toxicity, death number of mice/number of mice tested ([1]; 2000 mg/kg oral): 4/4
Analgesic activity, Haffner method, inhibitory ratio ([2]; 100 mg/kg oral): 25%
inhibition in vivo at 100 mg/kg ([3]; po): 50%
inhibition in vivo at 100 mg/kg ([4]; po, 3 h): 50%

CN(C)CCNC(=O)N(C)C(=O)Nc1ccccc1 [compound 55, 1-(2-Dimethylaminoethyl)-3-methyl-5-phenylbiuret]
Acute toxicity, death number of mice/number of mice tested ([1]; 500 mg/kg oral): 2/4
Acute toxicity, death number of mice/number of mice tested ([1]; 1000 mg/kg oral): 3/4
Analgesic activity, Haffner method, inhibitory ratio ([2]; 100 mg/kg oral): 12.5%
inhibition in vivo at 100 mg/kg ([3]; po): 12.5%
inhibition in vivo at 100 mg/kg [4, 5]: 22%

CNC(=O)NC(=O)Nc1ccccc1 [Compound No. 2]
Acute toxicity, death number of mice/number of mice tested ([1]; 500 mg/kg oral): 0/4
Acute toxicity, death number of mice/number of mice tested ([1]; 1000 mg/kg oral): 4/4
Analgesic activity, Haffner method, inhibitory ratio ([2]; 100 mg/kg oral): 50%
inhibition in vivo at 100 mg/kg ([3]; po): 75%
inhibition in vivo at 100 mg/kg ([4]; po, 3 h): 28%

CCN(C(=O)NC)C(=O)Nc1ccccc1 [Compound No. 21, 1-Methyl-3-ethyl-5-phenylbiuret]
Acute toxicity, death number of mice/number of mice tested ([1]; 1000 mg/kg oral): 1/4
Acute toxicity, death number of mice/number of mice tested ([1]; 2000 mg/kg oral): 3/4
Analgesic activity, Haffner method, inhibitory ratio ([2]; 100 mg/kg oral): 37.5%
inhibition in vivo at 100 mg/kg ([3]; po): 50%
inhibition in vivo at 100 mg/kg [4, 5]: 56%

CCNC(=O)NC(=O)NCc1ccccc1 [compound 29, 1-Ethyl-5-benzylbiuret]
Acute toxicity, death number of mice/number of mice tested ([1]; 1000 mg/kg oral): 0/4
Acute toxicity, death number of mice/number of mice tested ([1]; 2000 mg/kg oral): 1/4
Analgesic activity, Haffner method, inhibitory ratio ([2]; 100 mg/kg oral): 25%
inhibition in vivo at 100 mg/kg ([3]; po): 12.5%
inhibition in vivo at 100 mg/kg [4, 5]: 31%

CN(C(=O)NCC(=O)O)C(=O)Nc1ccccc1 [compound 60, 1-Carboxymethyl-3-methyl-5-phenylbiuret]
Acute toxicity, death number of mice/number of mice tested ([1]; 2000 mg/kg oral): 0/4
Analgesic activity, Haffner method, inhibitory ratio ([2]; 100 mg/kg oral): 25%
inhibition in vivo at 100 mg/kg ([3]; 100 mg/kg oral, mice): 25%

CNC(=O)N(C)C(=O)Nc1ccccc1C(=O)O [compound 10, 1,3-Dimethyl-5-(2-carboxyphenyl)biuret]
Acute toxicity, death number of mice/number of mice tested ([1]; 1000 mg/kg oral): 1/4
Acute toxicity, death number of mice/number of mice tested ([1]; 2000 mg/kg oral): 4/4
inhibition in vivo at 100 mg/kg ([3]; po): 12.5%

CN(C(=O)NCC(C)(C)O)C(=O)Nc1ccccc1 [Compound No. 57, 1-(2-Methyl-2-hydroxypropyl)-3-methyl-5-phenylbiuret]
Acute toxicity, death number of mice/number of mice tested ([1]; 1000 mg/kg oral): 0/4
Acute toxicity, death number of mice/number of mice tested ([1]; 2000 mg/kg oral): 2/4
Analgesic activity, Haffner method, inhibitory ratio ([2]; 100 mg/kg oral): 50%
inhibition in vivo at 100 mg/kg ([3]; 100 mg/kg oral, mice): 100%

CN(C(=O)NO)C(=O)Nc1ccccc1 [compound 62, 1-Hydroxy-3-methyl-5-phenylbiuret]
Acute toxicity, death number of mice/number of mice tested ([1]; 1000 mg/kg oral): 0/4
Acute toxicity, death number of mice/number of mice tested ([1]; 2000 mg/kg oral): 1/4
Analgesic activity, Haffner method, inhibitory ratio ([2]; 100 mg/kg oral): 25%

CNC(=O)N(C)C(=O)NCc1ccccn1 [compound 13, 1,3-Dimethyl-5-(2-pyridylmethyl)biuret]
Acute toxicity, death number of mice/number of mice tested ([1]; 1000 mg/kg oral): 0/4
Acute toxicity, death number of mice/number of mice tested ([1]; 2000 mg/kg oral): 2/4
Analgesic activity, Haffner method, inhibitory ratio ([2]; 100 mg/kg oral): 37.5%
inhibition in vivo at 100 mg/kg ([3]; 100 mg/kg oral, mice): 25%

CN(C(=O)NCCCl)C(=O)Nc1ccccc1 [compound 53, 1-(2-Chloroethyl)-3-methyl-5-phenylbiuret]
Acute toxicity, death number of mice/number of mice tested ([1]; 2000 mg/kg oral): 0/4
Analgesic activity, Haffner method, inhibitory ratio ([2]; 100 mg/kg oral): 25%
inhibition in vivo at 100 mg/kg ([3]; po): 12.5%
inhibition in vivo at 100 mg/kg ([4]; po, 3 h): 40%

CCNC(=O)NC(=O)Nc1ccccc1 [Compound No. 23, 1-ethyl-5-phenylbiuret]
Acute toxicity, death number of mice/number of mice tested ([1]; 2000 mg/kg oral): 0/4
Analgesic activity, Haffner method, inhibitory ratio ([2]; 200 mg/kg oral): 60%
inhibition in vivo at 100 mg/kg ([3]; po): 62.5%
inhibition in vivo at 100 mg/kg [4, 5]: 49%

CNC(=O)N(C)C(=O)NCc1ccccc1 [compound 12]
Acute toxicity, death number of mice/number of mice tested ([1]; 500 mg/kg oral): 0/4
Acute toxicity, death number of mice/number of mice tested ([1]; 1000 mg/kg oral): 4/4
Analgesic activity, Haffner method, inhibitory ratio ([2]; 100 mg/kg oral): 50%
inhibition in vivo at 100 mg/kg ([3]; 100 mg/kg oral, mice): 100%
inhibition in vivo at 100 mg/kg ([4]; po, 3 h): 47%

CCNC(=O)NC(=O)Nc1cccc(Cl)c1 [compound 25, 1-Ethyl-5-(3-chlorophenyl)biuret]
Acute toxicity, death number of mice/number of mice tested ([1]; 2000 mg/kg oral): 0/4
Analgesic activity, Haffner method, inhibitory ratio ([2]; 200 mg/kg oral): 37.5%
inhibition in vivo at 200 mg/kg ([3]; 200 mg/kg oral, mice): 25%
inhibition in vivo at 200 mg/kg [4, 6]: 86%

CN(C(N)=O)C(=O)Nc1ccccc1 [Compound No. 1]
Acute toxicity, death number of mice/number of mice tested ([1]; 2000 mg/kg oral): 2/4
inhibition in vivo at 100 mg/kg ([3]; po): 37.5%

CCCCNC(=O)NC(=O)Nc1ccccc1 [compound 46]
Acute toxicity, death number of mice/number of mice tested ([1]; 2000 mg/kg oral): 0/4
Analgesic activity, Haffner method, inhibitory ratio ([2]; 200 mg/kg oral): 25%
inhibition in vivo at 200 mg/kg [4, 6]: 84%

CN(C(=O)Nc1ccccc1)C(=O)Nc1ccccc1 [compound 64]
Acute toxicity, death number of mice/number of mice tested ([1]; 2000 mg/kg oral): 0/4
Analgesic activity, Haffner method, inhibitory ratio ([2]; 200 mg/kg oral): 12.5%
inhibition in vivo at 100 mg/kg ([3]; po): 37.5%

CC(=O)NC(=O)N(C)C(=O)Nc1ccccc1 [compound 61, 1-Acetyl-3-methyl-5-phenylbiuret]
Acute toxicity, death number of mice/number of mice tested ([1]; 2000 mg/kg oral): 0/4
Analgesic activity, Haffner method, inhibitory ratio ([2]; 100 mg/kg oral): 12.5%
inhibition in vivo at 100 mg/kg ([3]; po): 50%

COCCNC(=O)N(C)C(=O)Nc1ccccc1 [compound 59, 1-(2-Methoxyethyl)-3-methyl-5-phenylbiuret]
Acute toxicity, death number of mice/number of mice tested ([1]; 1000 mg/kg oral): 1/4
Acute toxicity, death number of mice/number of mice tested ([1]; 2000 mg/kg oral): 4/4
Analgesic activity, Haffner method, inhibitory ratio ([2]; 100 mg/kg oral): 25%
inhibition in vivo at 100 mg/kg ([3]; 100 mg/kg oral, mice): 25%

CN(C(=O)NCC(O)CO)C(=O)Nc1ccccc1 (stereo not shown) [compound 58, 1-(2,3-Dihydroxypropyl)-3-methyl-5-phenylbiuret]
Acute toxicity, death number of mice/number of mice tested ([1]; 2000 mg/kg oral): 0/4
Analgesic activity, Haffner method, inhibitory ratio ([2]; 100 mg/kg oral): 37.5%
inhibition in vivo at 100 mg/kg ([3]; po): 37.5%

CCNC(=O)NC(=O)Nc1ccccn1 [compound 30, 1-Ethyl-5-(2-pyridyl)biuret]
Acute toxicity, death number of mice/number of mice tested ([1]; 1000 mg/kg oral): 0/4
Acute toxicity, death number of mice/number of mice tested ([1]; 2000 mg/kg oral): 3/4
Analgesic activity, Haffner method, inhibitory ratio ([2]; 100 mg/kg oral): 37.5%
inhibition in vivo at 100 mg/kg ([4]; po, 3 h): 30%

Source: patent US4350700A, “Pharmaceutical composition containing 1,3,5-substituted biuret compound” (Taiho Pharmaceutical Company, Limited, priority 1979, dated 1982)
